Columns and labels:
Experiment in all cases: Test C preemergence
Type in all cases: in vivo
[1] = tested on: wheat (winter wheat, Triticum aestivum); settings: for Plant response rating, Wheat: scale 0 to 100, 0 no effect, 100 complete control
Outline: (§1)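 Visual 0 (no effect) to 100 (complete control) ratings versus controls, taken 13–15 d after treatment in the greenhouse; dash means no result. Compounds in a surfactant-containing non-phytotoxic solvent blend were applied preemergence to seeds in loam-sand soil or postemergence to 1- to 4-leaf plants (2–18 cm) in peat-based medium.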

[2] = tested on: nutsedge, yellow (yellow nutsedge, Cyperus esculentus); settings: for Plant response rating, Nutsedge, Yellow: scale 0 to 100, 0 no effect, 100 complete control
Outline: as §1

[3] = tested on: johnsongrass (Sorghum halepense); settings: for Plant response rating, Johnsongrass: scale 0 to 100, 0 no effect, 100 complete control
Outline: as §1

[4] = tested on: foxtail, giant (giant foxtail, Setaria faberii); settings: for Plant response rating, Foxtail, Giant: scale 0 to 100, 0 no effect, 100 complete control
Outline: as §1

[5] = tested on: pigweed (Amaranthus retroflexus); settings: for Plant response rating, Pigweed: scale 0 to 100, 0 no effect, 100 complete control
Outline: as §1

[6] = tested on: Galium (catchweed bedstraw, Galium aparine); settings: for Plant response rating, Galium: scale 0 to 100, 0 no effect, 100 complete control
Outline: as §1

[7] = tested on: waterhemp (common waterhemp, Amaranthus rudis); settings: for Plant response rating, Waterhemp: scale 0 to 100, 0 no effect, 100 complete control
Outline: as §1

corn (Zea mays) = settings: for Plant response rating, Corn: scale 0 to 100, 0 no effect, 100 complete control
Outline: as §1

[8] = tested on: morningglory (Ipomoea coccinea); settings: for Plant response rating, Morningglory: scale 0 to 100, 0 no effect, 100 complete control
Outline: as §1

[9] = tested on: ryegrass, Italian (Italian ryegrass, Lolium multiflorum); settings: for Plant response rating, Ryegrass, Italian: scale 0 to 100, 0 no effect, 100 complete control
Outline: as §1

[10] = tested on: barnyardgrass (Echinochloa crus-galli); settings: for Plant response rating, Barnyardgrass: scale 0 to 100, 0 no effect, 100 complete control
Outline: as §1

[11] = tested on: oilseed rape (Brassica napus); settings: for Plant response rating, Oilseed Rape: scale 0 to 100, 0 no effect, 100 complete control
Outline: as §1

[12] = tested on: ragweed (common ragweed, Ambrosia elatior); settings: for Plant response rating, Ragweed: scale 0 to 100, 0 no effect, 100 complete control
Outline: as §1

soybean (Glycine max) = settings: for Plant response rating, Soybean: scale 0 to 100, 0 no effect, 100 complete control
Outline: as §1

[13] = tested on: lambsquarters (Chenopodium album); settings: for Plant response rating, Lambsquarters: scale 0 to 100, 0 no effect, 100 complete control
Outline: as §1

[14] = tested on: velvetleaf (Abutilon theophrasti); settings: for Plant response rating, Velvetleaf: scale 0 to 100, 0 no effect, 100 complete control
Outline: as §1

[15] = tested on: blackgrass (Alopecurus myosuroides); settings: for Plant response rating, Blackgrass: scale 0 to 100, 0 no effect, 100 complete control
Outline: as §1

[16] = tested on: crabgrass, large (large crabgrass, Digitaria sanguinalis); settings: for Plant response rating, Crabgrass, Large: scale 0 to 100, 0 no effect, 100 complete control
Outline: as §1

[17] = 31 g ai/ha, 0 is no effect, 100 is complete control

CN1CC(c2ccc(F)c(C(F)(F)F)c2)C(C(=O)Nc2cccc(F)c2F)C1=O (stereo not drawn) [Compound 613]
Plant response rating (scale of 0 to 100), Wheat [1, 17]: 25
Plant response rating, Wheat ([1]; 62 g ai/ha): 45
Plant response rating, Wheat ([1]; 125 g ai/ha): 65
Plant response rating, Wheat ([1]; 250 g ai/ha): 70
Plant response rating (scale of 0 to 100), Nutsedge, Yellow [2, 17]: 0
Plant response rating, Nutsedge, Yellow ([2]; 62 g ai/ha): 0
Plant response rating, Nutsedge, Yellow ([2]; 125 g ai/ha): 10
Plant response rating, Nutsedge, Yellow ([2]; 250 g ai/ha): 20
Plant response rating (scale of 0 to 100), Johnsongrass [3, 17]: 75
Plant response rating, Johnsongrass ([3]; 62 g ai/ha): 85
Plant response rating, Johnsongrass ([3]; 125 g ai/ha): 90
Plant response rating, Johnsongrass ([3]; 250 g ai/ha): 90
Plant response rating (scale of 0 to 100), Foxtail, Giant [4, 17]: 95
Plant response rating, Foxtail, Giant ([4]; 62 g ai/ha): 95
Plant response rating, Foxtail, Giant ([4]; 125 g ai/ha): 95
Plant response rating, Foxtail, Giant ([4]; 250 g ai/ha): 98
Plant response rating (scale of 0 to 100), Pigweed [5, 17]: 70
Plant response rating, Pigweed ([5]; 62 g ai/ha): 80
Plant response rating, Pigweed ([5]; 125 g ai/ha): 85
Plant response rating, Pigweed ([5]; 250 g ai/ha): 90
Plant response rating (scale of 0 to 100), Galium [6, 17]: 90
Plant response rating, Galium ([6]; 62 g ai/ha): 90
Plant response rating, Galium ([6]; 125 g ai/ha): 90
Plant response rating, Galium ([6]; 250 g ai/ha): 90
Plant response rating (scale of 0 to 100), Waterhemp [7, 17]: 70
Plant response rating, Waterhemp ([7]; 62 g ai/ha): 75
Plant response rating, Waterhemp ([7]; 125 g ai/ha): 85
Plant response rating, Waterhemp ([7]; 250 g ai/ha): 90
Plant response rating (scale of 0 to 100), Corn (corn (Zea mays); [17]): 40
Plant response rating, Corn (corn (Zea mays); 62 g ai/ha): 55
Plant response rating, Corn (corn (Zea mays); 125 g ai/ha): 65
Plant response rating, Corn (corn (Zea mays); 250 g ai/ha): 85
Plant response rating (scale of 0 to 100), Morningglory [8, 17]: 40
Plant response rating, Morningglory ([8]; 62 g ai/ha): 40
Plant response rating, Morningglory ([8]; 125 g ai/ha): 55
Plant response rating, Morningglory ([8]; 250 g ai/ha): 50
Plant response rating (scale of 0 to 100), Ryegrass, Italian [9, 17]: 10
Plant response rating, Ryegrass, Italian ([9]; 62 g ai/ha): 25
Plant response rating, Ryegrass, Italian ([9]; 125 g ai/ha): 75
Plant response rating, Ryegrass, Italian ([9]; 250 g ai/ha): 95
Plant response rating (scale of 0 to 100), Barnyardgrass [10, 17]: 90
Plant response rating, Barnyardgrass ([10]; 62 g ai/ha): 95
Plant response rating, Barnyardgrass ([10]; 125 g ai/ha): 95
Plant response rating, Barnyardgrass ([10]; 250 g ai/ha): 98
Plant response rating (scale of 0 to 100), Oilseed Rape [11, 17]: 15
Plant response rating, Oilseed Rape ([11]; 62 g ai/ha): 70
Plant response rating, Oilseed Rape ([11]; 125 g ai/ha): 90
Plant response rating, Oilseed Rape ([11]; 250 g ai/ha): 90
Plant response rating (scale of 0 to 100), Ragweed [12, 17]: 25
Plant response rating, Ragweed ([12]; 62 g ai/ha): 25
Plant response rating, Ragweed ([12]; 125 g ai/ha): 40
Plant response rating, Ragweed ([12]; 250 g ai/ha): 65
Plant response rating (scale of 0 to 100), Soybean (soybean (Glycine max); [17]): 0
Plant response rating, Soybean (soybean (Glycine max); 62 g ai/ha): 0
Plant response rating, Soybean (soybean (Glycine max); 125 g ai/ha): 0
Plant response rating, Soybean (soybean (Glycine max); 250 g ai/ha): 0
Plant response rating (scale of 0 to 100), Lambsquarters [13, 17]: 25
Plant response rating, Lambsquarters ([13]; 62 g ai/ha): 60
Plant response rating, Lambsquarters ([13]; 125 g ai/ha): 50
Plant response rating, Lambsquarters ([13]; 250 g ai/ha): 75
Plant response rating (scale of 0 to 100), Velvetleaf [14, 17]: 30
Plant response rating, Velvetleaf ([14]; 62 g ai/ha): 40
Plant response rating, Velvetleaf ([14]; 125 g ai/ha): 40
Plant response rating, Velvetleaf ([14]; 250 g ai/ha): 70
Plant response rating (scale of 0 to 100), Blackgrass [15, 17]: 85
Plant response rating, Blackgrass ([15]; 62 g ai/ha): 85
Plant response rating, Blackgrass ([15]; 125 g ai/ha): 95
Plant response rating, Blackgrass ([15]; 250 g ai/ha): 95
Plant response rating (scale of 0 to 100), Crabgrass, Large [16, 17]: 95
Plant response rating, Crabgrass, Large ([16]; 62 g ai/ha): 95
Plant response rating, Crabgrass, Large ([16]; 125 g ai/ha): 95
Plant response rating, Crabgrass, Large ([16]; 250 g ai/ha): 98
